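Following 48 hours of exposure in 96-well plates, responses at five concentrations were used to interpolate endpoints linearly. GI50 = concentration required for 50% inhibition of growth. TGI: concentration producing complete growth inhibition.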
Tests used:
Test in all cases: DTP human tumour cell line panel, 48 h
LOX IMVI melanoma = system: LOX IMVI melanoma
SK-MEL-28 melanoma = system: SK-MEL-28 melanoma
HCT-116 colon = system: HCT-116 colon
SNB-19 CNS = system: SNB-19 CNS
RXF 393 renal = system: RXF 393 renal
HOP-62 NSCLC = system: HOP-62 NSCLC
U251 CNS = system: U251 CNS
NCI-H23 lung = system: NCI-H23 lung
SF-539 CNS = system: SF-539 CNS
COLO 205 colon = system: COLO 205 colon

Row | Structure (SMILES) | GI50 (LOX IMVI melanoma) [µM] | TGI (LOX IMVI melanoma) [µM] | GI50 (SK-MEL-28 melanoma) [µM] | TGI (SK-MEL-28 melanoma) [µM] | GI50 (HCT-116 colon) [µM] | TGI (HCT-116 colon) [µM] | GI50 (SNB-19 CNS) [µM] | TGI (SNB-19 CNS) [µM] | GI50 (RXF 393 renal) [µM] | TGI (RXF 393 renal) [µM] | GI50 (HOP-62 NSCLC) [µM] | TGI (HOP-62 NSCLC) [µM] | GI50 (U251 CNS) [µM] | TGI (U251 CNS) [µM] | GI50 (NCI-H23 lung) [µM] | TGI (NCI-H23 lung) [µM] | GI50 (SF-539 CNS) [µM] | TGI (SF-539 CNS) [µM] | GI50 (COLO 205 colon) [µM] | TGI (COLO 205 colon) [µM]
1 | Nc1c(C(=O)c2cccc(-c3cccnc3)c2)cnn1-c1ccc(F)cc1F | 5.76 | > 25 | 10.1 | > 25 | 2.87 | > 25 | 11.7 | > 25 | 7.91 | > 25 | 5.49 | > 25 | 6.79 | > 25 | 4.41 | > 25 | 8.32 | > 25 | 1.19 | > 25
2 | C#CCNCCN1C(=O)c2ccc3c4c(ccc(c24)C1=O)C(=O)N(CCNCC#C)C3=O | 1.76 | 8.08 | 10.4 | 27.6 | 1.75 | 11.1 | 3.56 | 10.6 | 1.79 | 9.69 | 4.1 | 14.9 | 3.3 | 10.9 | 3.56 | 15.6 | 4.76 | 11.2 | 2 | 6.92
3 | COc1cc(OC)c(C(=O)/C=C/c2cccc(C#N)c2)c(OC)c1 | 1.23 | 5.18 | 1.58 | 6.24 | 0.414 | 1.62 | 1.67 | 6.61 | 0.797 | 2.05 | 1.33 | 4.55 | 1.53 | 5.76 | 1.21 | 4.59 | 1.41 | 4.12 | 1.79 | 6.04
4 | Cc1cn2c(/C=C3/C(=O)Nc4ccc(O)cc43)c(C)nc2s1 | 4.46 | 99.6 | 8.44 | > 100 | 1.22 | > 45.5 | 5.47 | > 100 | 2.89 | > 72.5 | 2.89 | > 68 | 3.06 | 35.7 | 7.12 | > 68.9 | 2.42 | 9.16 | 3.58 | > 100
5 | O=C1C(c2cnc3ccccc3n2)=C(O)c2ccccc21 | – | > 61.5 | – | > 100 | – | > 100 | – | > 100 | – | 36.1 | – | > 100 | – | > 100 | – | > 100 | – | > 100 | – | > 56.2
6 | O=S(=O)(c1cccc2c(I)cccc12)N1CCCNCC1 | 18.3 | 36.6 | 21.6 | 44.2 | 15.4 | 32.6 | 20.9 | 42.8 | 27.3 | 73 | 16.5 | 34.4 | 19.6 | 39.1 | 17 | 34 | 15.7 | 32.8 | 29.1 | > 100
7 | O=[N+]([O-])c1cc(Cl)cnc1Br | – | 3.16 | – | 10.2 | – | 24 | – | 26.8 | – | 3.12 | – | 35.1 | – | 5.32 | – | 24.2 | – | 4.5 | – | 3.12
8 | COC(=O)Nc1nc2ccc(Oc3cccc(NC(=O)Nc4cc(C(F)(F)F)ccc4F)c3)cc2[nH]1 | 9.08 | > 25 | 11.3 | > 25 | 7.71 | > 25 | > 25 | > 25 | 10.4 | > 25 | 13.3 | > 25 | 15.4 | > 25 | 11.3 | > 25 | > 21.6 | > 25 | 8.82 | > 25
9 | C=C1CC[C@@H]2[C@](C)(COC(C)=O)[C@H](OC(C)=O)CC[C@@]2(C)[C@@H]1CC(Nc1ccc(S(=O)(=O)Nc2ccc(Cl)nn2)cc1)C1=CCOC1=O (stereo not given in full) | 0.295 | 1.19 | 1.68 | 3.46 | 1.08 | 2.32 | 1.91 | 3.91 | 1.77 | 3.29 | 1.46 | 2.99 | 1.68 | 3.05 | 2.06 | 5.35 | 1.23 | 2.63 | 1.46 | 3.16
10 | Cn1cccc1-c1cc(-c2ccc(Br)cc2)[nH]c(=O)c1C#N | > 100 | > 100 | > 100 | > 100 | > 100 | > 100 | > 100 | > 100 | > 100 | > 100 | > 100 | > 100 | > 100 | > 100 | > 100 | > 100 | 89.3 | > 100 | > 100 | > 100
11 | CCN1C(=O)N(CC)C2C1NN=c1s/c(=C\c3ccccn3)c(=O)n12 (stereo not given) | 5.71 | > 100 | 4.95 | > 100 | 0.825 | > 100 | 3.04 | > 100 | 1.66 | 5.86 | 2.91 | > 100 | 2.96 | > 100 | 3.82 | > 100 | 1.74 | 7.9 | 1.16 | 11.6
12 | COc1ccc(N(/C=C/C(=O)C(F)(F)F)CC(=O)c2ccc(F)cc2)cc1 | 16.4 | 39.1 | 41.1 | > 100 | 14.7 | 27.9 | 36.6 | > 100 | 28.8 | 77.4 | 20 | 44.9 | 13.1 | 28.3 | 30.1 | 84.9 | 21.4 | 52 | 26.9 | 84.5
13 | Cc1nn(C)c(COc2ccc(N3CCN(S(=O)(=O)N(C)C)CC3)cc2)c1-c1cccc2c(CCCOc3cccc4ccccc34)c(C(=O)O)n(CCN3CCOCC3)c12 | 3.16 | 11.6 | 2.07 | 4.87 | 3.08 | 15 | 3.63 | 23.4 | 2.72 | 6.98 | 3.03 | 14.4 | 3.13 | 11.5 | 3.54 | 14.7 | 2.44 | 6.17 | 2.1 | 4.81
14 | CCSc1nc(SCC)c2c(-c3ccc(OC)c(OC)c3)c(C#N)c(SCC)nc2n1 | 22.9 | 60.1 | 41.8 | > 100 | 30.3 | > 100 | 47.7 | > 100 | 59.7 | > 100 | 22.6 | 63.2 | 22.7 | 48.3 | 14.9 | 53.1 | 1.95 | 17.2 | 91.5 | > 100
15 | O=C(Nc1ccc(Oc2cccc(F)c2)c(Cl)c1)c1cnccn1 | 1.69 | > 50 | 28.6 | > 50 | 0.596 | > 50 | 2.74 | > 50 | 1.23 | 3.72 | 0.973 | > 50 | 1.51 | > 50 | 3 | > 50 | 1.35 | > 50 | 0.789 | > 50
16 | C[CH2][Sn]([CH2]C)([O]C(=O)c1ccccc1F)[O][Sn]([CH2]C)([CH2]C)[O]C(=O)c1ccccc1F | 19.4 | 37.1 | 18.7 | 33.4 | 38 | > 70.9 | > 43.6 | > 57.6 | 14.1 | 27.9 | > 100 | > 100 | 17.1 | 31.6 | 15.8 | 33.6 | 20.5 | 46.9 | 25.6 | > 57.9
17 | CC(=O)[O][Sn]([CH2]c1ccccc1)([CH2]c1ccccc1)[CH2]c1ccccc1 | 3.79 | > 4.64 | > 5.6 | > 6.79 | > 9.18 | > 10 | > 10 | > 10 | 3.98 | > 4.64 | > 5.55 | > 6.75 | > 10 | > 10 | > 5.98 | > 7.83 | > 5.42 | > 6.76 | > 5.6 | > 6.79
18 | COc1ccc(CC(=O)c2ccc(O)cc2O)cc1 | > 100 | > 100 | > 100 | > 100 | > 100 | > 100 | > 100 | > 100 | > 100 | > 100 | > 100 | > 100 | > 100 | > 100 | 63.5 | > 100 | > 100 | > 100 | > 100 | > 100
19 | COc1ccc(C2=C(c3ccc(OC)c(OC)c3)C(=O)N3CCCC3C2)cc1 (stereo not given) | 10.4 | > 52.7 | 73.3 | > 100 | 9.64 | > 100 | 63.8 | > 100 | 11.5 | > 38.2 | 14.7 | > 100 | 7.47 | > 100 | > 90.4 | > 100 | 12 | > 100 | 8.41 | > 100
20 | O=[N+]([O-])c1ccc(N2CCC(CCCC3CCN(c4ccc([N+](=O)[O-])cc4[N+](=O)[O-])CC3)CC2)c([N+](=O)[O-])c1 | – | 30.2 | – | 28.9 | – | > 100 | – | 34.8 | – | 35.4 | – | 29.5 | – | 29.2 | – | 54.3 | – | 36.7 | – | 31.8
21 | Nc1ccccc1C#C/C=C\C#Cc1cccc(O)c1 | 0.579 | 10.8 | 8.97 | 31.9 | 2.73 | 12.2 | 17.1 | > 55.7 | 0.423 | 5.02 | 2.63 | 12.1 | 4.09 | 17.1 | 2.44 | 9.38 | 2.5 | 11.5 | 8.45 | 23
22 | O=S(=O)(/C=C/CS(=O)(=O)c1ccccc1)c1ccccc1 | – | 57.4 | – | > 100 | – | 57.1 | – | > 100 | – | > 100 | – | 46.2 | – | 77.5 | – | 50 | – | 43.6 | – | > 100
23 | Cc1ccc(-c2csc(NC(=O)N3CCN(c4cc5c(cc4F)c(=O)c(C(=O)O)cn5C4CC4)CC3)n2)cc1 | 0.362 | > 100 | 0.494 | > 100 | 0.335 | > 100 | 0.398 | > 100 | 0.602 | 55 | 0.484 | > 100 | 0.392 | 14.8 | 0.391 | > 100 | 0.418 | > 100 | 1.92 | 6
24 | C[C@]12CC[C@@H]3c4ccc(O)cc4CC[C@H]3[C@@H]1Cc1cnc(N)nc12 | 17.4 | 31.3 | 10.7 | 26.1 | 23.6 | 69.2 | 14.4 | 43 | 11.5 | 31.3 | 25.5 | 59.1 | 17.9 | 41.6 | 18.1 | 41 | 14.8 | 30.5 | 13.7 | 27.6
25 | Nc1ncnc2c1c(-c1ccc(Oc3ccccc3)cc1)nn2C[C@@H]1SSC[C@H]1O | 0.272 | 1.74 | 0.084 | 12 | 0.364 | 5.23 | 2.88 | 13.3 | 1.82 | 5.18 | 0.797 | 6.74 | 2.48 | 8.21 | 0.916 | 8.17 | 1.02 | 8.02 | 2.14 | 7.48
